From publication doi:10.1101/2023.10.03.560722, “Drug Discovery in Low Data Regimes: Leveraging a Computational Pipeline for the Discovery of Novel SARS-CoV-2 Nsp14-MTase Inhibitors” (bioRxiv, 2024)
Read-outs that look alike come from different tables or passages of the source.

Tests used:
PRDM9 = PRDM9 (Homo sapiens, UniProt Q9NQV7); assay: human MTase selectivity panel; assay type: biochemical
nsp14 = nsp14 (Severe acute respiratory syndrome coronavirus 2, UniProt P0DTD1); assay: surface plasmon resonance (SPR) binding to immobilized full-length biotinylated nsp14; set-up: species or system SARS-CoV-2; conditions: n = 3
Procedure: For Surface Plasmon Resonance (SPR), the full-length biotinylated nsp14 was immobilized on the flow cell of a SA sensor chip in 1x HBS-EP buffer, achieving a response of 8000 RU. The assay was performed using the same buffer but with 2% DMSO added. Single-cycle kinetics were employed with a contact time of 60 seconds and a dissociation time of 120 seconds, at a flow rate of 75 µL/min. NSC620333 was tested at a concentration of 10 µM as the highest concentration, and a dilution factor of 0.25 was used to yield five different concentrations.

ASH1L = ASH1L (Homo sapiens, UniProt Q9NR48); assay: human MTase selectivity panel; assay type: biochemical
NSD3 = target: T1, NSD3 (Homo sapiens, UniProt Q9BZ95); assay: human MTase selectivity panel; assay type: biochemical
T1 sequence (Q9BZ95 1-1437): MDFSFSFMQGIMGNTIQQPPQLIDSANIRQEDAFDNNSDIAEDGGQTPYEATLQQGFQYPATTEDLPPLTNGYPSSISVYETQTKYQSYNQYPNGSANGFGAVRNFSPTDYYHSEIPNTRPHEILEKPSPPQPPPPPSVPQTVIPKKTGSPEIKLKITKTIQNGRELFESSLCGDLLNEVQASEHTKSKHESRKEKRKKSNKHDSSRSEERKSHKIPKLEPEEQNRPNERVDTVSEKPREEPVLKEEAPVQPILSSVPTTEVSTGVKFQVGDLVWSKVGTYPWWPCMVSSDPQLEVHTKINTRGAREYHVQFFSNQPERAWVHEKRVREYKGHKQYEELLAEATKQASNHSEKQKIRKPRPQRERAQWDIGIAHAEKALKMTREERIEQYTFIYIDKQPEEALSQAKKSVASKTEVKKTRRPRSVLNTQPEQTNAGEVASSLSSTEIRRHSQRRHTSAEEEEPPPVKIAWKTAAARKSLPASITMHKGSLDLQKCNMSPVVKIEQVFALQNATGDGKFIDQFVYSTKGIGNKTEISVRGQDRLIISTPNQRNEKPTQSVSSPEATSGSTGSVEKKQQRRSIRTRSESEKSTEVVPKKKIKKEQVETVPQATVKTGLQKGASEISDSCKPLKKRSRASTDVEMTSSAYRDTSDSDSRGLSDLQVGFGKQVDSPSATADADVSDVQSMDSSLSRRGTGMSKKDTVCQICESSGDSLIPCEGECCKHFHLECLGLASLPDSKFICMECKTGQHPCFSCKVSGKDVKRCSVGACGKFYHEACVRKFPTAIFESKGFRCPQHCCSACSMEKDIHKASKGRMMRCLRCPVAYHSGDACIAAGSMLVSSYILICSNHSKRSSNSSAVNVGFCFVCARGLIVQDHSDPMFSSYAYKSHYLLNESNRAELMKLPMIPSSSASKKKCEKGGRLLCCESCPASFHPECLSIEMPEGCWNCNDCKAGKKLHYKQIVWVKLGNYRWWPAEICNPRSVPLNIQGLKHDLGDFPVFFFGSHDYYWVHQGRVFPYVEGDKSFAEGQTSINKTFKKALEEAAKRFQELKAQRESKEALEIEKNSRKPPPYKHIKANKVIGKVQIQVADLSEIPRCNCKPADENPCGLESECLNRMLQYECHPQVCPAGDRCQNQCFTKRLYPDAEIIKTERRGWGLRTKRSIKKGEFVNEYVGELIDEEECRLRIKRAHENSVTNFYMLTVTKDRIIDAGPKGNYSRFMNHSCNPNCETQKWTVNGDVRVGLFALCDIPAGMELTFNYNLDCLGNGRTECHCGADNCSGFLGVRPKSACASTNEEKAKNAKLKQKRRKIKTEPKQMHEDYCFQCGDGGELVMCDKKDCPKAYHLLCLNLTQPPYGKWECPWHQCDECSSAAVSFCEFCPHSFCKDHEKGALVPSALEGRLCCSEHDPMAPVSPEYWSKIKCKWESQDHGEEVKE

SETD7 = target: T2, SETD7 (Homo sapiens, UniProt Q8WTS6); assay: human MTase selectivity panel; assay type: biochemical
T2 sequence (Q8WTS6 1-366): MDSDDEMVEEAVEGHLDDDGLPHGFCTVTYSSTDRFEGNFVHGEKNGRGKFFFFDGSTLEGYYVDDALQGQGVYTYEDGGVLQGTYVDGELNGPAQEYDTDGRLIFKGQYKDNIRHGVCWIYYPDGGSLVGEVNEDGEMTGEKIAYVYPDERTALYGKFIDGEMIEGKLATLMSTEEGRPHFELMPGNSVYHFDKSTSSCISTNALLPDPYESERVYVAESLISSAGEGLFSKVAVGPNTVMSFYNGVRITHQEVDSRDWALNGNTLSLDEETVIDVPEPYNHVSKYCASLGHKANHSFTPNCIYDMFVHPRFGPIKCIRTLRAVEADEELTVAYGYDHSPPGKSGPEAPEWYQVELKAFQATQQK

SMYD3 = target: T3, SMYD3 (Homo sapiens, UniProt Q9H7B4); assay: human MTase selectivity panel; assay type: biochemical
T3 sequence (Q9H7B4 1-428): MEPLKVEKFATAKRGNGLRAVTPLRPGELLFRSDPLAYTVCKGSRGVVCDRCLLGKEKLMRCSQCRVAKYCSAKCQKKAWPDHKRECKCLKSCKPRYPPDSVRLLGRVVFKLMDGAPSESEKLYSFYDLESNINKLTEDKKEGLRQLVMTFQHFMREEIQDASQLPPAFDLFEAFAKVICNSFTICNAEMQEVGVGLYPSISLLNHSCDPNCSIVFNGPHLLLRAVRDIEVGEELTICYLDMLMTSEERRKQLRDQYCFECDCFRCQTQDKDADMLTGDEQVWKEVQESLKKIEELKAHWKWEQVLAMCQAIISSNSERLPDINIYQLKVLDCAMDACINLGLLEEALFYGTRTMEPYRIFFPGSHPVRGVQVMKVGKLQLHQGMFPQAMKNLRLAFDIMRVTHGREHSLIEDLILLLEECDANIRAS

[1] = average ± SD, read-out: Activity (%) at 10 µM Average
[2] = read-out: Activity (%) at 10 µM Replicate 1
[3] = read-out: Activity (%) at 10 µM Replicate 2
[4] = read-out: Activity (%) at 10 µM Replicate 3

Sequence of PRDM9 (Q9NQV7 whole entry): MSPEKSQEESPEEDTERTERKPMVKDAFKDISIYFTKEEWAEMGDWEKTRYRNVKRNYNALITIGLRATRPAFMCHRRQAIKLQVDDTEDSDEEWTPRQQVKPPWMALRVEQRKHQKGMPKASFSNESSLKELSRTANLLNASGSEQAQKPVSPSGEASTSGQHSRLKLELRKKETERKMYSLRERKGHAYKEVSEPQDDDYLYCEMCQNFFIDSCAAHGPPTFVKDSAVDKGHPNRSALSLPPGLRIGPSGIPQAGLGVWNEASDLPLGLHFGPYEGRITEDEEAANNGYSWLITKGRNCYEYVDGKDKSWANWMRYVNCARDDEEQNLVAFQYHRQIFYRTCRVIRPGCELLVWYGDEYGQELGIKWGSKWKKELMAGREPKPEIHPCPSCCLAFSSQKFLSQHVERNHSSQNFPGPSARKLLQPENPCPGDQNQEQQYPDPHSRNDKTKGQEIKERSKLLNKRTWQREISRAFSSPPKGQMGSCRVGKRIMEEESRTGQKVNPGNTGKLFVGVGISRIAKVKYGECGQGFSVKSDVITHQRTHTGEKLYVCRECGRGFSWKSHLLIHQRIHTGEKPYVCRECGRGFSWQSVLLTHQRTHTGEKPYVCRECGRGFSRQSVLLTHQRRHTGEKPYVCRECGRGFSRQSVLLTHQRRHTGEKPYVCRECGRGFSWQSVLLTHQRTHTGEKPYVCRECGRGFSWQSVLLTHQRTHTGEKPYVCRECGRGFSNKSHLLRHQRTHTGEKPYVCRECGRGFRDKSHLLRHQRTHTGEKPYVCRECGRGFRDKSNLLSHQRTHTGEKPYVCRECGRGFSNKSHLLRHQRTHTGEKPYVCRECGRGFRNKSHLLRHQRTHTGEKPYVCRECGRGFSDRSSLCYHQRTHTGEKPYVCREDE

`Nc1ncnc2c1ncn2[C@@H]1O[C@H](CSCc2ccc(Cl)cc2)[C@@H](O)[C@H]1O` [NSC620333] gave an activity at 10 µM (PRDM9; [1]) of 106 ± 3%, an activity at 10 µM (PRDM9; [2]) of 110% and an activity at 10 µM (PRDM9; [3]) of 105%. For the same compound, the activity at 10 µM (PRDM9; [4]) was 104%, the Kd (nsp14; SPR single-cycle kinetics, read-out: KD (kinetic fitting)) was 427 ± 84 nM and the Kd (nsp14; SPR steady-state 1:1 binding model, read-out: steady-state KD) was 544 ± 22 nM. The activity at 10 µM (ASH1L; [1]) was 105 ± 8%, the activity at 10 µM (ASH1L; [2]) was 113% and the activity at 10 µM (ASH1L; [3]) was 97%. It also gave an activity at 10 µM (ASH1L; [4]) of 104%, an activity at 10 µM (NSD3; [1]) of 110 ± 5% and an activity at 10 µM (NSD3; [2]) of 112%. The activity at 10 µM (NSD3; [3]) was 104%, the activity at 10 µM (NSD3; [4]) was 115% and the activity at 10 µM (SETD7; [1]) was 87 ± 1%. For the same compound, the activity at 10 µM (SETD7; [2]) was 85%, the activity at 10 µM (SETD7; [3]) was 88% and the activity at 10 µM (SETD7; [4]) was 87%. For the same compound, the activity at 10 µM (SMYD3; [1]) was 100 ± 9%, the activity at 10 µM (SMYD3; [2]) was 101% and the activity at 10 µM (SMYD3; [3]) was 108%. It also gave an activity at 10 µM (SMYD3; [4]) of 91%.
